Drawing on ChEMBL document CHEMBL4480431, “Design, synthesis and biological evaluation of imidazo[1,5-a]pyrazin-8(7H)-one derivatives as BRD9 inhibitors” (Bioorg Med Chem, 2019), this text covers inhibition and IC50 for 26 compounds.

Assay [1] addresses T1, Bromodomain-containing protein 9 (Homo sapiens) (UniProt Q9H8M2).
T1 sequence (whole entry): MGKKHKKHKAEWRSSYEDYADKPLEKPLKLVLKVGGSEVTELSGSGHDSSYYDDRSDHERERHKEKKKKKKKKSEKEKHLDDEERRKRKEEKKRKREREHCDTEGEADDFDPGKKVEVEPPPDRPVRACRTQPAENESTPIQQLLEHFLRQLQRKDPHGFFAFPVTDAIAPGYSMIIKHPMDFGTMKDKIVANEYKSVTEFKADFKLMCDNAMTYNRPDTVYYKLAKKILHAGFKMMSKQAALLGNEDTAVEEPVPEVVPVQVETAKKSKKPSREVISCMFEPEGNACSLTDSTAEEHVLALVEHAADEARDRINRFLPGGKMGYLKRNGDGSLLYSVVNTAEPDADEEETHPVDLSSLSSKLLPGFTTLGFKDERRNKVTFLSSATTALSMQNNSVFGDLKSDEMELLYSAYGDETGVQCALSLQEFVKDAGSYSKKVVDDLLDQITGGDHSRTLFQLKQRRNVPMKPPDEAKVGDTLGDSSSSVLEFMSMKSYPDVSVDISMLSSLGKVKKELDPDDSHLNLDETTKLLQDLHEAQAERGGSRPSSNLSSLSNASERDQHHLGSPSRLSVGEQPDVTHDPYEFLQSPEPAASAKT
Kind of assay: Inhibition of BRD9 (unknown origin) at 1 uM using H4 peptide as substrate preincubated for 15 mins followed by substrate addition and measured after 60 mins by Alphascreen assay relative to control. On the technique in general: Alpha assays give light when donor and acceptor beads are brought close together.

In assay [2] the target is T2, Bromodomain-containing protein 9 (Homo sapiens, UniProt Q9H8M2).
T2 sequence (Q9H8M2 whole entry): T1 sequence (whole entry)
Put plainly: Inhibition of BRD9 (unknown origin) using H4 peptide as substrate preincubated for 15 mins followed by substrate addition and measured after 60 mins by Alphascreen assay.

Assay [3] relates to A549. Put plainly: Antiproliferative activity against human A549 cells. The format is functional, cell-based.
Assay [4] relates to EOL1. Put plainly: Antiproliferative activity against human EOL-1 cells. The format is functional, cell-based.
Assay [5] concerns the target Bromodomain-containing protein 4 (Homo sapiens) (UniProt O60885). Kind of assay: Inhibition of recombinant human BRD4 (44 to 168) residues expressed in Escherichia coli at 1 uM using H4 peptide as substrate preincubated for 15 mins followed by substrate addition and measured after 60 mins by Alphascreen assay relative to control.

`Cn1cc(-c2ccc(C(=O)N3CCOCC3)c(Cl)c2)n2cncc2c1=O`: the inhibition (commonly the drop in the measured response relative to a control, in per cent) in assay [1] was found to be 27%. In addition, in assay [2], 1.5 µM corresponded to half-maximal inhibition (IC50).
The matching figures for `C/C=C/Cn1cc(-c2ccc(C(=O)N3CCN(S(C)(=O)=O)CC3)c(F)c2)n2cncc2c1=O`: 71% and 0.652 µM.
For `C/C=C/Cn1cc(-c2ccc(C(=O)N3CCNCC3)c(Cl)c2)n2cncc2c1=O`, the IC50 (as a rule, the midpoint of a concentration-inhibition curve) amounted to 6.12 µM in assay [3], 1.76 µM in assay [4] and 0.035 µM in assay [2]. Besides, the inhibition in assay [1] was 99%; in assay [5], -6%.
For `C/C=C/Cn1cc(-c2ccc(C(=O)N3CCOCC3)c(F)c2)n2cncc2c1=O`, the inhibition in assay [1] amounted to 38%. The same compound yielded a half-maximal inhibitory concentration (IC50) in assay [2] of 0.967 µM.
For `CCCCn1cc(-c2ccc(C(=O)NC3CCS(=O)(=O)CC3)c(Cl)c2)n2cncc2c1=O`, in assay [1], the inhibition was found to be 21%.
On to `C/C=C/Cn1cc(-c2ccc(C(=O)N3CCC(C(N)=O)CC3)c(Cl)c2)n2cncc2c1=O`, for which the half-inhibitory concentration (IC50) in assay [3] was found to be 7.15 µM; in assay [4] it was 3.42 µM; in assay [2] it was 0.262 µM. For the same compound, the inhibition in assay [1] is 94%; in assay [5], -5%.
In the case of `CCn1cc(-c2ccc(C(=O)N3CCNCC3)c(Cl)c2)n2cncc2c1=O`, the inhibition in assay [1] came out at 83%. Moreover, it took 0.802 µM to reach half-maximal inhibition in assay [2] (IC50).
The matching figures for `CCCn1cc(-c2ccc(C(=O)N3CCNCC3)c(Cl)c2)n2cncc2c1=O`: 86% and 0.93 µM.
Consider `CCCn1cc(-c2ccc(C(=O)NC3CCS(=O)(=O)CC3)c(Cl)c2)n2cncc2c1=O`, for which the inhibition in assay [1] is 23%.
Consider `CCn1cc(-c2ccc(C(=O)N3CCOCC3)c(Cl)c2)n2cncc2c1=O`, for which the inhibition in assay [1] amounted to 5%.
With `CCS(=O)(=O)Nc1ccc(Oc2ccc(F)cc2)c(-c2cn(C)c(=O)c3cncn23)c1`, the inhibition in assay [5] was determined as 100%.
For the compound `C/C=C/Cn1cc(-c2ccc(C(=O)N3CCOCC3)c(Cl)c2)n2cncc2c1=O`, the IC50 in assay [3] is > 10 µM; in assay [4], 8.17 µM; in assay [2], 0.465 µM. In addition, the results for the inhibition in assay [1] and in assay [5] were 91% and -2%, respectively.
For `C/C=C/Cn1cc(-c2ccc(C(=O)N3CCN(S(C)(=O)=O)CC3)cc2Cl)n2cncc2c1=O`, the inhibition in assay [1] was 52%. The IC50 in assay [2] came to 0.84 µM.
For `C/C=C/Cn1cc(-c2ccc(C(=O)N3CCOCC3)cc2Cl)n2cncc2c1=O`, the inhibition in assay [1] amounted to 42%. In addition, the midpoint of inhibition in assay [2], the IC50, lay at 0.763 µM.
The matching figures for `Cn1cc(-c2ccc(C(=O)N3CCOCC3)cc2)n2cncc2c1=O`: 18% and 2.33 µM.
The corresponding values for `Cn1cc(-c2ccccc2)n2cncc2c1=O` are 7% and 7.21 µM.
In the case of `CCn1cc(-c2ccc(C(=O)NC3CCS(=O)(=O)CC3)c(Cl)c2)n2cncc2c1=O`, in assay [1], the inhibition came to 75%. In assay [2], the IC50 was 1.02 µM.
For the compound `C/C=C/Cn1cc(-c2ccc(C(=O)NC3CCS(=O)(=O)CC3)c(Cl)c2)n2cncc2c1=O`, the figures for the IC50 in assay [3], in assay [4] and in assay [2] were > 10 µM, 5.34 µM and 0.48 µM, respectively. The results for the inhibition in assay [1] and in assay [5] were 100% and -5%, respectively.
With `C/C=C/Cn1cc(-c2ccc(C(=O)N3CCCC3)c(Cl)c2)n2cncc2c1=O`, the IC50 in assay [3] is 8.23 µM; in assay [4], 5.82 µM; in assay [2] it was 0.438 µM. For the same compound, the inhibition is 87% in assay [1] and -4% in assay [5].
The corresponding values for `C/C=C/Cn1cc(-c2ccc(C(=O)N3CCN(C)CC3)c(Cl)c2)n2cncc2c1=O` are > 10 µM, 7.03 µM, 0.557 µM, 80% and -3%.
Regarding `CCCCn1cc(-c2ccc(C(=O)N3CCNCC3)c(Cl)c2)n2cncc2c1=O`, the inhibition in assay [1] was found to be 68%. Further, it took 0.73 µM to reach half-maximal inhibition in assay [2] (IC50).
The corresponding values for `CCCCn1cc(-c2ccc(C(=O)N3CCOCC3)c(Cl)c2)n2cncc2c1=O` are 48% and 0.827 µM.
The corresponding values for `COc1cccc(-c2cn(C)c(=O)c3cncn23)c1` are 16% and 3.01 µM.
As for `C/C=C/Cn1cc(-c2ccc(C(=O)N3CCN(S(C)(=O)=O)CC3)c(Cl)c2)n2cncc2c1=O`, the 50% inhibitory concentration (IC50) turned out to be 6.63 µM in assay [3], 2.29 µM in assay [4] and 0.103 µM in assay [2]. Besides, the inhibition was 94% in assay [1] and -5% in assay [5].
For the compound `CCOC(=O)Nc1cc(-c2ccc(C)c(NS(C)(=O)=O)c2)nn2c(C)nnc12`, the inhibition in assay [1] lay in the range of 87 to 90%.
For the compound `Cn1cc(-c2cccc(C(F)(F)F)c2)n2cncc2c1=O`, the inhibition in assay [1] was determined as 6%. 7.41 µM corresponded to half-maximal inhibition in assay [2] (IC50).
